Biological target: proMMP13(1-268) (SEQ ID NO:7) (Homo sapiens, UniProt P45452)
Assay: ThermoFluor binding assay with proMMP13(1-268)
Parameters: 6xHis (C); made in house
Conditions: pH 7.0
Method in brief: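 Thermal shift binding with 3.5 μM protein and 25 μM 1,8-ANS in 50 mM HEPES pH 7.0, 100 mM NaCl, 0.001% Tween-20, 2.5 mM MgCl2, 300 μM CaCl2. Samples were heated 40 to 90 °C at 1 °C/min, fluorescence read at 500 nm. Tm shifts across an 11-point DMSO dilution series were fitted with DSC-derived thermodynamic parameters.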

Cc1nc(C)c(-c2csc(Nc3cc(S(N)(=O)=O)ccc3OC(C)C)n2)s1 [Example 64, 3-(2′,4′-Dimethyl-[4,5′]bithiazolyl-2-ylamino)-4-isopropoxy-benzenesulfonamide.HBr]
Kd: 140 nM

— US20120129842A1, “BISTHIAZOLE INHIBITORS OF PRO-MATRIX METALLOPROTEINASE ACTIVATION” (priority 2010, published 2012)
